Experimental data as given in patent US8735414B2 (priority 2009, dated 2014).
pIC50: −log10 of the molar value.

Legend:
[1] = tested on: bicistronic HCV replicon (replicon RNA, GenBank Accession No. AJ242654); assay: HCV Replicon Assay; assay type: cell-based; conditions: Hepatitis C virus, 72 h, read-out: Replicon IC50

Structure (SMILES)	pIC50 [1]	melting point [°C]
Cc1cc2c(cc1Br)c(C#N)c(-c1ccc(S(=O)(=O)N[C@H](C)C(F)(F)F)cn1)n2C1CCCC1 [compound 692, 6-(5-bromo-3-cyano-1-cyclopentyl-6-methyl-1H-indol-2-yl)-N-[(2R)-1,1,1-trifluoropropan-2-yl]pyridine-3-sulfonamide]	> 6.30	226.5 to 227
C[C@@H](NS(=O)(=O)c1ccc(-c2c(C#N)c3cc(Cl)ccc3n2C2CCCCC2)nc1)C(F)(F)F [compound 461, 6-(5-chloro-3-cyano-1-cyclohexyl-1H-indol-2-yl)-N-[(2R)-1,1,1-trifluoropropan-2-yl]pyridine-3-sulfonamide]	> 6.30	226 to 227
N#Cc1c(-c2ncc(S(=O)(=O)NC(CF)CF)cn2)n(C2CCCC2)c2cc(OC(F)F)ccc12 [compound 233, 2-[3-cyano-1-cyclopentyl-6-(difluoromethoxy)-1H-indol-2-yl]-N-(1,3-difluoropropan-2-yl)pyrimidine-5-sulfonamide]	> 6.30	199 to 201
C[C@H](NS(=O)(=O)c1cnc(-c2c(C#N)c3ccc(F)cc3n2C2CCCC2)nc1)C(F)(F)F [compound 495, 2-(3-cyano-1-cyclopentyl-6-fluoro-1H-indol-2-yl)-N-[(2S)-1,1,1-trifluoropropan-2-yl]pyrimidine-5-sulfonamide]	5.30 to 5.70	217 to 219
COc1ccc2c(c1)c(C#N)c(-c1ncc(S(=O)(=O)N[C@@H](C)C(F)(F)F)cn1)n2C1CCC1 [compound 569, 2-(3-cyano-1-cyclobutyl-5-methoxy-1H-indol-2-yl)-N-[(2S)-1,1,1-trifluoropropan-2-yl]pyrimidine-5-sulfonamide]	5.70 to 6.30	203 to 205
Cc1cc2c(cc1F)c(C(N)=O)c(-c1ccc(S(=O)(=O)N[C@@H](C)C(F)(F)F)cn1)n2-c1cnccn1 [compound 875, 5-fluoro-6-methyl-1-(pyrazin-2-yl)-2-(5-{[(2S)-1,1,1-trifluoropropan-2-yl]sulfamoyl}pyridin-2-yl)-1H-indole-3-carboxamide]	> 6.30	162 to 169
CC(C)NS(=O)(=O)c1cnc(-c2c(C#N)c3ccc(C(F)F)cc3n2C2CCC2)nc1 [compound 332, 2-[3-cyano-1-cyclobutyl-6-(difluoromethyl)-1H-indol-2-yl]-N-(propan-2-yl)pyrimidine-5-sulfonamide]	> 6.30	221 to 227
N#Cc1c(-c2ccc(S(=O)(=O)NC(CF)CF)cn2)n(C2CCCC2)c2cc(CC(F)F)ccc12 [compound 593, 6-[3-cyano-1-cyclopentyl-6-(2,2-difluoroethyl)-1H-indol-2-yl]-N-(1,3-difluoropropan-2-yl)pyridine-3-sulfonamide]	> 6.30	178 to 184
C[C@H](NS(=O)(=O)c1ccc(-c2c(C#N)c3ccc(Cl)cc3n2C2CCC2)nc1)C(F)(F)F [compound 375, 6-(6-chloro-3-cyano-1-cyclobutyl-1H-indol-2-yl)-N-[(2S)-1,1,1-trifluoropropan-2-yl]pyridine-3-sulfonamide]	> 6.30	198 to 204
C[C@H](NS(=O)(=O)c1ccc(-c2c(C#N)c3cc(C(F)(F)F)ccc3n2-c2ncccn2)nc1)C(F)(F)F [compound 922, 6-[3-cyano-1-(pyrimidin-2-yl)-5-(trifluoromethyl)-1H-indol-2-yl]-N-[(2S)-1,1,1-trifluoropropan-2-yl]pyridine-3-sulfonamide]	> 6.30	180 to 183
N#Cc1c(-c2ccc(S(=O)(=O)NC(CF)CF)cn2)n(C2CCCC2)c2ccc(F)cc12 [compound 38, 6-(3-cyano-1-cyclopentyl-5-fluoro-1H-indol-2-yl)-N-(1,3-difluoropropan-2-yl)pyridine-3-sulfonamide]	> 6.30	171 to 172
Cc1cc2c(cc1F)c(C(N)=O)c(-c1ccc(S(=O)(=O)NC(C)(C)C)cn1)n2-c1ccccc1 [compound 1116, 2-[5-(tert-butylsulfamoyl)pyridin-2-yl]-5-fluoro-6-methyl-1-phenyl-1H-indole-3-carboxamide]	> 6.30	241.2 to 242.5
Cc1cc2c(cc1O)c(C#N)c(-c1ccc(S(=O)(=O)N[C@@H](C)C(F)(F)F)cn1)n2C1CCC1 [compound 796, 6-(3-cyano-1-cyclobutyl-5-hydroxy-6-methyl-1H-indol-2-yl)-N-[(2S)-1,1,1-trifluoropropan-2-yl]pyridine-3-sulfonamide]	> 6.30	193 to 195
Cc1cc2c(cc1O)c(C(N)=O)c(-c1ccc(S(=O)(=O)N[C@@H](C)C(F)(F)F)cn1)n2C1CCCC1 [compound 841, 1-cyclopentyl-5-hydroxy-6-methyl-2-(5-{[(2S)-1,1,1-trifluoropropan-2-yl]sulfamoyl}pyridin-2-yl)-1H-indole-3-carboxamide]	> 6.30	272 to 274
N#Cc1c(-c2ccc(S(=O)(=O)NC3CC(F)(F)C3)cn2)n(C2CCC2)c2cc(C3CC3)ccc12 [compound 247, 6-(3-cyano-1-cyclobutyl-6-cyclopropyl-1H-indol-2-yl)-N-(3,3-difluorocyclobutyl)pyridine-3-sulfonamide]	5.70 to 6.30	176 to 178
C[C@@H](NS(=O)(=O)c1ccc(-c2c(C#N)c3ccc(C4CC4)cc3n2C2CCC2)nc1)C(F)(F)F [compound 212, 6-(3-cyano-1-cyclobutyl-6-cyclopropyl-1H-indol-2-yl)-N-[(2R)-1,1,1-trifluoropropan-2-yl]pyridine-3-sulfonamide]		192 to 196
CC(C)(C)NS(=O)(=O)c1ccc(-c2c(C#N)c3ccc(OC(F)F)cc3n2C2CCC2)nc1 [compound 543, N-tert-butyl-6-[3-cyano-1-cyclobutyl-6-(difluoromethoxy)-1H-indol-2-yl]pyridine-3-sulfonamide]		178 to 180
CC(C)(NS(=O)(=O)c1ccc(-c2c(C#N)c3ccc(OC(F)F)cc3n2C2CCC2)nc1)C(F)(F)F [compound 479, 6-[3-cyano-1-cyclobutyl-6-(difluoromethoxy)-1H-indol-2-yl]-N-(1,1,1-trifluoro-2-methylpropan-2-yl)pyridine-3-sulfonamide]		165 to 171
N#Cc1c(-c2ccc(S(N)(=O)=O)cn2)n(C2CCC2)c2cc(OC(F)F)ccc12 [compound 552, 6-[3-cyano-1-cyclobutyl-6-(difluoromethoxy)-1H-indol-2-yl]pyridine-3-sulfonamide]		204 to 205
CC(C)NS(=O)(=O)c1ccc(-c2c(C#N)c3cc(F)ccc3n2C2CCC2)nc1 [compound 5, 6-(3-cyano-1-cyclobutyl-5-fluoro-1H-indol-2-yl)-N-(propan-2-yl)pyridine-3-sulfonamide]		203 to 205
C[C@H](NS(=O)(=O)c1ccc(-c2c(C#N)c3ccc(OC(F)F)cc3n2C2CCC2)nc1)C1CC1 [compound 151, 6-[3-cyano-1-cyclobutyl-6-(difluoromethoxy)-1H-indol-2-yl]-N-[(1S)-1-cyclopropylethyl]pyridine-3-sulfonamide]		163 to 168
